The test system of this assay is BDF1 mice, Friend leukemia sc, tumor weight T/C. Description: NCI In Vivo Anticancer Drug Screen. Data for tumor model Friend Virus Leukemia (Solid) (subcutaneous) in B6D2F1 (BDF1) mice. As to conditions: endpoint: mean tumor weight, higher = larger tumour. Here is the method:
The antitumor activity of compounds was measured in mice bearing transplantable tumors. Survival or tumor size were measured and the results are expressed as the measurement made in the treated group (T) divided by the measurement made in the vehicle treated control group (C). The tumor model used in this assay is Friend Virus Leukemia (Solid) (subcutaneous) in B6D2F1 (BDF1) mice

Setting [1] is: dose: 30.0 mg/kg/injection, schedule: Q01DX011 (ip), vehicle: carboxymethylcellulose (CMC).
Where [2] appears, read: dose: 60.0 mg/kg/injection, schedule: Q01DX011 (ip), vehicle: carboxymethylcellulose (CMC).

Drawing on PubChem BioAssay AID228 (DTP/NCI, 2004), this text covers T/C for eight molecules.

Values joined by “and” are separate entries in the source; they are usually repeats but may differ in a detail not shown here. Equal entries are not always repeated. Inconclusive results are not listed.

As to `C[C@]12CC[C@@H]3c4ccc(O)cc4CC[C@H]3[C@@H]1CC[C@@H]2O`, the T/C (dose: 1.0 mg/kg/injection, schedule: Q01DX011 (sc), vehicle: steriod suspending solution) is 74 % of control; the T/C (dose: 5.0 mg/kg/injection, schedule: Q01DX011 (sc), vehicle: steriod suspending solution) is 104 % of control; the T/C (dose: 10.0 mg/kg/injection, schedule: Q01DX011 (sc), vehicle: steriod suspending solution) is 71 % of control; the T/C (dose: 20.0 mg/kg/injection, schedule: Q01DX011 (sc), vehicle: steriod suspending solution) is 73 % of control; the T/C (dose: 40.0 mg/kg/injection, schedule: Q01DX011 (sc), vehicle: steriod suspending solution) is 61 % of control; the T/C (dose: 80.0 mg/kg/injection, schedule: Q01DX011 (sc), vehicle: steriod suspending solution) is 75 % of control. For the same molecule, the T/C (dose: 100.0 mg/kg/injection, schedule: Q01DX011 (sc), vehicle: steriod suspending solution) is 103 % of control; the T/C (dose: 150.0 mg/kg/injection, schedule: Q01DX011 (sc), vehicle: steriod suspending solution) is 106 % of control; the T/C (dose: 200.0 mg/kg/injection, schedule: Q01DX011 (sc), vehicle: steriod suspending solution) is 101 % of control; the T/C (dose: 400.0 mg/kg/injection, schedule: Q01DX011 (sc), vehicle: steriod suspending solution) is 110 % of control; the T/C (dose: 500.0 mg/kg/injection, schedule: Q01DX011 (sc), vehicle: steriod suspending solution) was 86 % of control and 107 % of control.
As to `Nc1ncnc2c1ncn2C1CCCO1` (stereo not drawn), the T/C runs as follows: (dose: 50.0 mg/kg/injection, schedule: Q01DX011 (ip), vehicle: carboxymethylcellulose (CMC)) 111 % of control; (dose: 100.0 mg/kg/injection, schedule: Q01DX011 (ip), vehicle: carboxymethylcellulose (CMC)) 54 % of control.
For the molecule `C1OC1C1CO1` (stereo not drawn), the T/C runs as follows: (dose: 4.5 mg/kg/injection, schedule: Q01DX011 (ip), vehicle: carboxymethylcellulose (CMC)) 77 % of control; (dose: 9.0 mg/kg/injection, schedule: Q01DX011 (ip), vehicle: carboxymethylcellulose (CMC)) 107 % of control and 115 % of control; (dose: 18.0 mg/kg/injection, schedule: Q01DX011 (ip), vehicle: carboxymethylcellulose (CMC)) 70 % of control and 83 % of control.
Turning to `CC1CN1C(=O)c1cc(C(=O)N2CC2C)cc(C(=O)N2CC2C)c1` (stereo not drawn), the T/C (dose: 15.0 mg/kg/injection, schedule: Q01DX011 (ip), vehicle: carboxymethylcellulose (CMC)) is 70 % of control; the T/C under setting [1] was 151 % of control; the T/C under setting [2] was 47 % of control.
With `N=C(N)c1ccc(Nc2ccc(C(=N)N)cc2)cc1`, the T/C was 186 % of control (dose: 5.0 mg/kg/injection, schedule: Q01DX011 (ip), vehicle: water); 164 % of control (dose: 7.5 mg/kg/injection, schedule: Q01DX011 (ip), vehicle: water); 154 % of control (dose: 10.0 mg/kg/injection, schedule: Q01DX011 (ip), vehicle: water); 180 % of control (dose: 15.0 mg/kg/injection, schedule: Q01DX011 (ip), vehicle: water).
Consider `Nc1ncnc2c1ccn2C1OC(CO)C(O)C1O` (stereo not drawn), for which the T/C runs as follows: (dose: 0.6 mg/kg/injection, schedule: Q01DX011 (ip), vehicle: carboxymethylcellulose (CMC)) 104 % of control; (dose: 1.25 mg/kg/injection, schedule: Q01DX011 (ip), vehicle: carboxymethylcellulose (CMC)) 72 % of control.
`CC(=O)Nc1ccc(NC(=O)c2ccc([As](O)O)cc2)cc1`: the T/C was 111 % of control under setting [1]; 109 % of control under setting [2]; 101 % of control (dose: 120.0 mg/kg/injection, schedule: Q01DX011 (ip), vehicle: carboxymethylcellulose (CMC)).
For `COC(=O)/C=C\C(=O)O` (tested in a mixture with another compound), the T/C reads like this: (dose: 14.0 mg/kg/injection, schedule: Q#A X022 (ip), vehicle: carboxymethylcellulose (CMC)) 88 % of control; (dose: 28.0 mg/kg/injection, schedule: Q#A X022 (ip), vehicle: carboxymethylcellulose (CMC)) 92 % of control; (dose: 31.0 mg/kg/injection, schedule: Q#A X022 (ip), vehicle: carboxymethylcellulose (CMC)) 68 % of control; (dose: 56.0 mg/kg/injection, schedule: Q#A X022 (ip), vehicle: carboxymethylcellulose (CMC)) 49 % of control; (dose: 62.5 mg/kg/injection, schedule: Q#A X022 (ip), vehicle: carboxymethylcellulose (CMC)) 36 % of control.
